Results published in the supplement of paper PMC10307832.

How the values were obtained:
Test in all cases: relative viability (nuclei count vs DMSO), 5 days (fraction); higher = more cells survive
Nelarabine + Decitabine = compound: COc1nc(N)nc2c1ncn2[C@@H]1O[C@H](CO)[C@@H](O)[C@@H]1O [Nelarabine] + Nc1ncn([C@H]2C[C@H](O)[C@@H](CO)O2)c(=O)n1 [Decitabine] (partner 2 µM)
Summary of the method: (§1)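 Lung cancer cell lines were seeded in 1536-well plates and dosed by pin tool the next day, with either a single drug or a fixed anchor-drug dose combined with five library-drug doses (not always all listed) spaced in √10 steps. Five days later, one step fixed the cells and stained their nuclei (final 0.05% Triton X-100, 1% formaldehyde, 1 ug/ml Hoechst), and nuclei were counted on 4× images. Relative viability is the nuclei count in treated wells divided by the count in vehicle wells, and each value is the median of duplicate plates.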

Adavosertib + Pemetrexed = compound: C=CCn1c(=O)c2cnc(Nc3ccc(N4CCN(C)CC4)cc3)nc2n1-c1cccc(C(C)(C)O)n1 [Adavosertib] + Nc1nc2[nH]cc(CCc3ccc(C(=O)N[C@@H](CCC(=O)O)C(=O)O)cc3)c2c(=O)[nH]1 [Pemetrexed] (partner 0.2 µM)
Summary of the method: as §1

Nelarabine + OSI-027 = compound: COc1nc(N)nc2c1ncn2[C@@H]1O[C@H](CO)[C@@H](O)[C@@H]1O [Nelarabine] + COc1cccc2cc(-c3nc([C@H]4CC[C@H](C(=O)O)CC4)n4ncnc(N)c34)[nH]c12 [OSI-027] (partner 0.5 µM)
Summary of the method: as §1

Nelarabine + Olaparib = compound: COc1nc(N)nc2c1ncn2[C@@H]1O[C@H](CO)[C@@H](O)[C@@H]1O [Nelarabine] + O=C(c1cc(Cc2n[nH]c(=O)c3ccccc23)ccc1F)N1CCN(C(=O)C2CC2)CC1 [Olaparib] (partner 8 µM)
Summary of the method: as §1

Cell Line	relative viability (Nelarabine + Decitabine; first compound 0.01 µM)	relative viability (Nelarabine + Decitabine; first compound 0.03162 µM)	relative viability (Nelarabine + Decitabine; first compound 0.1 µM)	relative viability (Nelarabine + Decitabine; first compound 0.3162 µM)	relative viability (Nelarabine + Decitabine; first compound 1 µM)	relative viability (Adavosertib + Pemetrexed; first compound 0.01 µM)	relative viability (Adavosertib + Pemetrexed; first compound 0.03162 µM)	relative viability (Adavosertib + Pemetrexed; first compound 0.1 µM)	relative viability (Adavosertib + Pemetrexed; first compound 0.3162 µM)	relative viability (Nelarabine + OSI-027; first compound 0.01 µM)	relative viability (Nelarabine + OSI-027; first compound 0.03162 µM)	relative viability (Nelarabine + OSI-027; first compound 0.1 µM)	relative viability (Nelarabine + OSI-027; first compound 0.3162 µM)	relative viability (Nelarabine + OSI-027; first compound 1 µM)	relative viability (Nelarabine + Olaparib; first compound 0.01 µM)	relative viability (Nelarabine + Olaparib; first compound 0.03162 µM)	relative viability (Nelarabine + Olaparib; first compound 0.1 µM)	relative viability (Nelarabine + Olaparib; first compound 0.3162 µM)	relative viability (Nelarabine + Olaparib; first compound 1 µM)
HCC-366	0.419	0.346	0.296	0.31	0.34	0.227	0.143	0.136	0.0818	1.3	0.737	0.878	1.28	0.973	0.33	0.327	0.434	0.385	0.389
HCC-78	0.713	0.639	–	0.843	0.737	0.921	0.922	0.959	0.887	0.306	0.35	–	0.385	0.372	1.01	0.857	–	0.914	0.87
NCI-H358	0.219	0.214	0.171	0.215	0.219	0.227	0.189	0.166	0.157	1	0.816	0.767	1.09	0.989	0.616	0.406	0.587	0.637	0.627
NCI-H23	0.249	0.272	0.299	0.348	0.303	0.664	0.539	0.487	0.262	0.686	0.504	0.512	0.738	0.62	0.32	0.235	0.294	0.33	0.335
PC-14	0.225	0.231	0.202	0.219	0.224	0.151	0.121	0.115	0.0767	1.41	0.97	0.936	1.22	1.05	0.265	0.205	0.31	0.251	0.294
SW 900	0.415	0.399	0.398	0.39	0.41	0.457	0.484	0.492	0.443	0.569	0.551	0.565	0.452	0.655	0.843	0.752	0.96	0.949	0.797
NCI-H1650	0.392	0.447	0.484	0.478	0.333	0.387	0.366	0.281	0.278	0.713	0.619	0.458	0.767	0.61	0.922	0.81	1	0.883	0.946
H3255	0.712	0.563	0.574	0.64	0.632	0.553	0.59	0.563	0.536	–	0.653	0.637	0.585	0.456	0.624	0.553	0.54	0.583	0.558
NCI-H1563	–	–	–	–	–	0.677	0.903	0.713	0.808	0.847	0.722	0.785	0.739	0.863	–	–	–	–	–
A549	0.293	0.282	0.271	0.287	0.23	–	–	–	–	–	–	–	–	–	0.379	0.363	0.401	0.452	0.377
UMC-11	0.71	0.551	0.578	0.589	0.61	0.791	0.725	0.763	0.594	0.655	0.569	0.586	0.476	0.503	0.36	0.469	0.356	0.386	0.357
LOU-NH91	0.896	0.755	0.766	0.802	0.809	0.371	0.371	0.338	0.36	0.738	0.785	0.657	0.765	0.748	0.997	0.922	0.873	0.882	0.925
NCI-H1299	–	–	–	–	–	–	–	–	–	–	–	–	–	–	1	0.999	0.989	1.02	1.03
HCC-44	0.942	0.924	0.863	1.01	0.928	0.677	0.602	0.574	0.433	0.568	0.484	0.607	0.518	0.52	1.07	0.972	0.948	0.975	0.986
NCI-H1437	0.627	0.651	0.568	0.634	0.557	0.328	0.281	0.309	0.229	1.04	0.859	0.845	0.948	0.796	0.701	0.611	0.656	0.695	0.611
HARA	0.436	0.577	0.442	0.668	0.539	0.244	0.22	0.229	0.191	0.645	0.583	0.439	0.671	0.487	0.843	0.569	0.746	0.834	0.636
EBC-1	–	–	–	–	–	–	–	–	–	–	–	–	–	–	0.89	0.911	0.707	0.676	0.737
NCI-H2085	0.536	0.535	0.52	0.605	0.439	0.881	0.86	0.901	0.998	0.945	0.849	0.664	0.797	0.748	0.815	0.768	0.731	0.802	0.74
NCI-H322M	0.68	0.662	0.659	0.718	0.678	0.593	0.625	0.52	0.469	0.575	0.544	0.431	0.516	0.612	0.79	0.75	0.701	0.827	0.836
NCI-H1355	0.359	0.347	0.368	0.37	0.382	0.984	1.03	0.965	0.808	0.481	0.434	0.367	0.363	0.382	0.824	0.6	0.684	0.766	0.74

Cell Line	relative viability (Nelarabine + Decitabine; first compound 0.01 µM)	relative viability (Nelarabine + Decitabine; first compound 0.03162 µM)	relative viability (Nelarabine + Decitabine; first compound 0.1 µM)	relative viability (Nelarabine + Decitabine; first compound 0.3162 µM)	relative viability (Nelarabine + Decitabine; first compound 1 µM)	relative viability (Adavosertib + Pemetrexed; first compound 0.01 µM)	relative viability (Adavosertib + Pemetrexed; first compound 0.03162 µM)	relative viability (Adavosertib + Pemetrexed; first compound 0.1 µM)	relative viability (Adavosertib + Pemetrexed; first compound 0.3162 µM)	relative viability (Nelarabine + OSI-027; first compound 0.01 µM)	relative viability (Nelarabine + OSI-027; first compound 0.03162 µM)	relative viability (Nelarabine + OSI-027; first compound 0.1 µM)	relative viability (Nelarabine + OSI-027; first compound 0.3162 µM)	relative viability (Nelarabine + OSI-027; first compound 1 µM)	relative viability (Nelarabine + Olaparib; first compound 0.01 µM)	relative viability (Nelarabine + Olaparib; first compound 0.03162 µM)	relative viability (Nelarabine + Olaparib; first compound 0.1 µM)	relative viability (Nelarabine + Olaparib; first compound 0.3162 µM)	relative viability (Nelarabine + Olaparib; first compound 1 µM)
COR-L 105	0.691	0.723	0.644	0.66	0.719	0.976	1.07	1.07	0.916	0.781	0.82	0.531	0.616	0.715	0.554	0.666	0.592	0.697	0.541
201T	0.869	0.871	0.837	0.896	0.829	0.319	0.343	0.325	0.281	0.85	0.638	0.762	1.15	0.85	0.876	0.835	0.845	0.858	0.835
NCI-H2342	0.758	0.759	0.703	0.775	0.734	0.754	0.826	0.764	0.844	0.734	0.533	0.564	0.75	0.626	0.442	0.432	0.443	0.395	0.442
NCI-H838	0.54	0.432	0.473	0.513	0.466	0.263	0.22	0.172	0.168	0.463	0.377	0.324	0.426	0.45	0.839	0.743	0.849	0.89	0.852
NCI-H522	0.724	0.763	0.608	0.684	0.558	1.02	1.03	1.04	0.949	0.758	0.76	0.713	0.722	0.687	0.619	0.738	0.651	0.592	0.639
CAL-12T	–	–	–	–	–	1.15	1.25	1.02	0.682	0.616	0.874	0.687	0.635	0.583	0.662	0.87	0.748	0.676	0.73
NCI-H1755	0.706	0.811	0.734	0.639	0.737	0.419	0.43	0.43	0.392	0.647	0.642	0.699	0.835	0.781	0.878	0.966	0.931	0.938	0.927
LCLC-103H	0.924	0.716	0.809	0.759	0.638	0.445	0.462	0.427	0.449	0.499	0.322	0.459	0.464	0.486	0.951	0.754	0.838	0.762	0.815
NCI-H1666	0.651	0.843	0.736	0.754	0.668	0.808	0.925	0.82	0.695	0.874	0.955	0.89	0.915	0.908	0.681	0.638	0.737	0.665	0.769
LC-2-ad	0.904	0.865	0.757	0.932	0.73	0.288	0.276	0.302	0.277	0.922	0.879	0.754	0.81	0.875	0.748	0.39	0.668	0.753	0.701
PC-3 [JPC-3]	0.84	0.81	0.843	0.799	0.872	–	1.24	1.26	1.12	0.854	0.604	0.73	0.744	0.685	1.46	1.2	1.1	1.25	1.22
A-427	0.551	0.576	0.476	0.528	0.535	0.97	0.905	0.892	0.893	0.489	0.42	0.373	0.443	0.52	0.796	0.818	0.812	0.803	0.704
NCI-H1651	0.487	0.725	0.61	0.648	0.527	0.564	0.574	0.628	0.408	0.761	0.677	0.727	0.874	0.631	0.183	0.195	0.213	0.171	0.193
IA-LM	–	–	–	–	–	–	–	–	–	–	–	–	–	–	0.932	0.811	0.877	0.825	0.789
Calu-6	–	–	–	–	–	–	–	–	–	–	–	–	–	–	0.67	0.65	0.698	0.575	0.594
NCI-H2228	–	–	–	–	–	–	0.331	0.361	0.2	0.949	0.635	–	0.784	0.563	0.664	0.574	0.322	0.826	0.447
NCI-H1623	–	–	–	–	–	–	–	–	–	0.436	0.374	0.392	0.379	0.391	–	–	–	–	–
NCI-H727	0.819	0.938	0.918	0.769	0.463	–	–	–	–	0.565	0.722	0.534	0.562	0.695	0.697	0.559	0.636	0.731	0.656
NCI-H1703	–	–	–	–	–	–	–	–	–	–	–	–	–	–	0.547	0.293	0.295	0.557	0.524
ABC-1	1.25	1.21	1.09	1.05	0.972	–	–	–	–	0.535	0.48	0.38	0.44	0.477	0.774	0.706	0.777	0.903	0.835
